# Test results as given in patent publication US20260048046A1, “METHOD FOR IMPROVING GROWTH PERFORMANCE IN FEEDLOT CATTLE” (Elanco US Inc., priority 2022, published 2026).
# Entries after “also recorded” stand apart in the source; their conditions may differ.
# System: beef cattle
# Assay: 91-d study: carcass characteristics
# Format: in vivo
# Conditions: for Adjusted fat thickness / Calculated yield grade / HGW / IM area / KPH / Dressing percentage / Lean maturity / Overall maturity / Skeletal maturity / Marbling score: 91-d treatment, LS mean; for Dressing percentage: unshrunk BW basis; for Lean maturity / Overall maturity / Skeletal maturity: 100 A, 200 B maturity; for Marbling score: 500 Small, 600 Modest
# From the text: A randomized complete block design was used to evaluate the effect of lubabegron (LUB) on performance over a 91-d period using 336 beef cattle (BW=453±34.5 kg) housed in cattle pen enclosures (CPE). Four LUB treatments were included in the study based on dose: 0.0 (control or CON), 1.38, 5.5, and 22.0 (mg·kg^−1 of DM). Because there was a limited number of CPE (n=8), three sequential cycles (blocks) were required to generate 6 replicates of each dose×sex combination. As such, 112 cattle (56 steers and 56 heifers) were housed concurrently within each cycle across the eight CPE (14 cattle/CPE), with each dose×sex combination being represented by a single CPE/cycle. To assure different frame sizes of cattle were represented, cattle in cycles one and three were large-frame Continental crossbreds, whereas cattle in cycle 2 were medium-frame British crossbreds.
# On day 91, cattle were loaded onto double-decked aluminum semi-trailers and transported ˜1,000 km to a commercial abattoir where they were slaughtered following an ˜5 to 9 h lairage. Carcass identification was maintained throughout the slaughter process by recording ear tag sequence at stunning and then cross-matching to sequentially numbered carcass tags. Hot carcass weights and KPH were measured following industry standard processing, and yield grade (YG) and quality grade data were collected from left carcass sides by trained university personnel after 22 h in a spray-chill system.
# Data were analyzed using version 9.2 of SAS (SAS Institute, Cary, NC), and the individual CPE were considered the experimental unit. Continuous variables were analyzed using PROC MIXED, with treatment (LUB dose), sex, and the dose×sex interaction as fixed effects, and cycle as the random effect included in the model. If the dose×sex interaction was not significant (P>0.05), the main effect of dose pooled across sexes was evaluated. When the main effect of dose was significant (P≤0.05) or tended to be significant (0.05≤P≤0.10), planned contrasts comparing each LUB dose to CON were performed in a pairwise fashion. If the dose×sex was significant (P≤0.05) planned contrasts comparing each LUB dose to CON within sex were performed in a pairwise fashion. Treatment means were estimated using the LSMEANS statement.
# Discrete variables were analyzed with a generalized linear mixed model using a binomial distribution and logit link function in PROC GLIMMIX. The classification of fixed and random effects and the handling of interactions and pairwise comparisons were performed in a similar manner as the continuous variables. Statistical analyses for YG were performed on both continuous and discrete (YG 1=1.00 to 1.99, YG 2=2.00 to 2.99, and so on) forms of data, and quality grades were further sorted into the five categories routinely used for determining premium or discount adjustments when cattle are marketed on a grid-based system (U.S. Prime, upper 2/3 Choice, low Choice, Select, and Standard). […] Fisher's exact test was performed using PROC FREQ to evaluate the frequency distribution of the CON cattle compared with LUB. Statistical significance for the main effects of dose was determined by P≤0.05 and tendencies were declared when 0.05≤P≤0.10.
smiles,measurement,setting,value
"CC(C)(Cc1ccc(Oc2ncccc2C#N)cc1)NC[C@H](O)COc1ccccc1-c1cccs1 [LUB, 2-{4-[2-({(2S)-2-Hydroxy-3-[2-(2-thienyl)phenoxy]propyl}amino)-2-methylpropyl]phenoxy}nicotinonitrile]","Effect of LUB treatment on skeletal, lean, or overall maturity","91 d, P≥0.262",no effect
same,Probability of cattle producing a YG3 carcass,"91 d, YG as discrete variable, CON vs LUB-fed",greater (P<0.019) for CON-than LUB-fed cattle
same,"Probability of cattle producing YG1, YG2, or YG4 carcasses","91 d, across treatments, P≥0.233",similar
same,Effect of LUB treatment on calculated YG,"91 d, all LUB doses vs CON, P=0.155",no effect
same,Effect of LUB treatment on adjusted fat thickness,"91 d, all LUB doses vs CON, P=0.579",not affected; also recorded: no change
same,Dark cutter incidence,"91 d, only a single carcass over the entire study",not influenced by treatment
same,Increased HCW,"LUB 1.38 mg·kg^−1 DM (first of the respective treatments), 91 d",15 kg animal-1
same,Adjusted fat thickness,LUB 1.38 mg·kg^−1 DM,1.15 cm
same,Calculated yield grade,LUB 1.38 mg·kg^−1 DM,2.37
same,HGW,LUB 1.38 mg·kg^−1 DM,364 kg
same,IM area,LUB 1.38 mg·kg^−1 DM,94.8 cm^2
same,KPH,LUB 1.38 mg·kg^−1 DM,1.99%
same,Dressing percentage,LUB 1.38 mg·kg^−1 DM,62.4%
same,Lean maturity,LUB 1.38 mg·kg^−1 DM,163
same,Overall maturity,LUB 1.38 mg·kg^−1 DM,168
same,Skeletal maturity,LUB 1.38 mg·kg^−1 DM,170
same,Marbling score,LUB 1.38 mg·kg^−1 DM,573
same,Increased HCW,"LUB 5.5 mg·kg^−1 DM (second of the respective treatments), 91 d",16 kg animal-1
same,Adjusted fat thickness,LUB 5.5 mg·kg^−1 DM,1.24 cm
same,Calculated yield grade,LUB 5.5 mg·kg^−1 DM,2.41
same,HGW,LUB 5.5 mg·kg^−1 DM,365 kg
same,KPH,LUB 5.5 mg·kg^−1 DM,1.96%
same,Dressing percentage,LUB 5.5 mg·kg^−1 DM,62.7%
same,Lean maturity,LUB 5.5 mg·kg^−1 DM,167
same,Overall maturity,LUB 5.5 mg·kg^−1 DM,169
same,Skeletal maturity,LUB 5.5 mg·kg^−1 DM,170
same,Marbling score,LUB 5.5 mg·kg^−1 DM,560
same,Increased HCW,"LUB 22.0 mg·kg^−1 DM (third of the respective treatments), 91 d",16 kg animal-1
same,Adjusted fat thickness,LUB 22.0 mg·kg^−1 DM,1.19 cm
same,Calculated yield grade,LUB 22.0 mg·kg^−1 DM,2.25
same,HGW,LUB 22.0 mg·kg^−1 DM,365 kg
same,IM area,LUB 22.0 mg·kg^−1 DM,96.8 cm^2
same,KPH,LUB 22.0 mg·kg^−1 DM,1.61%
same,Dressing percentage,LUB 22.0 mg·kg^−1 DM,62.8%
same,Lean maturity,LUB 22.0 mg·kg^−1 DM,163
same,Overall maturity,LUB 22.0 mg·kg^−1 DM,168
same,Skeletal maturity,LUB 22.0 mg·kg^−1 DM,172
same,Marbling score,LUB 22.0 mg·kg^−1 DM,562
same,Carcass weights heavier than CON,"cattle fed LUB (1.38, 5.5, 22.0 mg·kg^−1 DM), 91 d",about 15 kg
same,Probability of grading high Choice vs CON,"cattle fed LUB, 91 d, P=0.004",lower
same,Probability of grading low Choice vs CON,"cattle fed LUB, 91 d, P=0.021",greater
